Reference: patent publication US20110280940A1, “Di-Vanilloyl And Tri-Vanilloyl Derivatives For Use In Anti-Cancer Therapy” (priority 2008, published 2011)
Where two headings read alike, the source gives them in different places.

Assays:
VM48 melanoma cells = assay: MTT colorimetric assay, overall cell growth, VM48; assay type: cell-based, human; conditions: MTT, 72 hours of incubation, read-out: In Vitro IC50 Growth Inhibitory Values, VM48
[1] = system: PC-3 prostate cancer cells; assay: MTT colorimetric assay, overall cell growth, PC-3; assay type: cell-based, human; conditions: 72 hours of incubation, read-out: In Vitro IC50 Growth Inhibitory Values, PC-3
From the text: (§1) The amount of formazan obtained at the end of the experiment, measured by means of a spectrophotometer, is directly proportional to the number of living cells. Optical density determination thus enabled a quantitative measurement of the effect of the investigated compounds as compared to the control condition (untreated cells) and/or to other reference compounds. Eleven human cancer cell lines and one mouse melanoma cell-line (B16F10) described in Table 2 were used in the following MTT tests. These cancer cell lines cover seven histological cancer types including prostate (PC3), glioma (Hs683, T98G, U373, melanoma (VM21, VM28), non-small-cell-lung (A549), breast (MCF-7), colon (LoVo) and oesophageal (OE21, OE33) cancers. […] Each cell line was seeded in its appropriate culture medium. The detailed experimental procedure was the following: after a 24-hour period of incubation at 37° C., the culture medium was replaced by 100 μl of fresh medium in which the tested compound was previously dissolved, at the following molar concentrations: 10^-8 […] and 10^-4 M. Each experiment was performed in sestuplicates (6 times). After 72 hours of incubation at 37° C. with (experimental conditions) or without (control condition) the compound to be tested, the medium was replaced by 100 μl MTT dissolved in RPMI (1640 without phenol red) at a concentration of 0.5 or 1 mg/ml. The micro-wells were subsequently incubated during 3 hours and a half at 37° C. and centrifuged at 1300 rpm during 10 minutes. MTT was removed and formazan crystals formed were dissolved in 100 μl DMSO. The micro-wells were shaken for 5 minutes and read on a spectrophotometer at wavelengths of 570 nm (maximal formazan absorbance). For each experimental condition, the mean optical density was calculated, allowing the determination of the percentage of remaining living cells in comparison to the control. […] The origin of all the cell lines we used, along with their biological characteristics, and the validation procedures of the MTT colorimetric assay as employed here are fully detailed in Van Quaquebeke et al., 2005, J Med Chem 48:849-856; […]

VM21 melanoma cells = assay: MTT colorimetric assay, overall cell growth, VM21; assay type: cell-based, human; conditions: MTT, 72 hours of incubation, read-out: In Vitro IC50 Growth Inhibitory Values, VM21
From the text: as §1

U373-MG glioma cell line = assay: Cellular imaging (quantitative videomicroscopy), global growth ratio, U373; assay type: cell-based; conditions: Homo sapiens, 50 μM, 72 h, read-out: Global Grow Ratio Treated/Ct (GGR T/Ct) determined by Video Quantitative microscopy, U373
From the text: (§2) As the MTT test is based on the mitochondria functions, we also investigated the effects of the di- and tri-vanilloyl derivatives according to the invention on cell proliferation, migration and morphology by means of a cellular imaging approach (Debeir et al., Cytometry 60:29-40, 2004; Debeir et al., IEEE Trans Med Imaging 24:697-711, 2005) either in the human U373-MG glioma cell line, which is apoptosis-resistant but autophagy-sensitive (Lefranc F et al., Neurosurgery 2008) and in the human A549 non-small-cell-lung cancer cell line, which is apoptosis-resistant and autophagy-resistant (Mijatovic T et al., Neoplasia 2006, May; 8(5):402-12).
(§3) Investigations have also been performed in human normal fibroblasts (WS1 and WI38—see Tables 4 and 5). Cellular imaging relied on the use of computer-assisted phase-contrast microscopy making possible to film the behaviour of living cells in culture dishes for several days.
(§4) Cells were seeded in a 25-cm^2 flask at a low density, treated or not with the vanilloyl-esters invention (at a concentration of 50 μM) and filmed thereafter for a period of 72 h. The experiment was conducted in quadruplicates (in duplicates for DLT-95 compounds).
(§5) The behaviour of the cells, in terms of morphology, growth and death were thus investigated. The effect on the overall growth was measured by counting the number of cells on the first (0 h) and the last image (72 h) of each film. The global growth ratio (GGR) was then deduced by dividing the number of cells on the last image by the number of cells on the first image. The ratio GGRtreated cells/GGRcontrol cells, was further calculated thereby obtaining a value that describes the effect of compounds of the present invention on the overall cell growth. The methodology is fully described and validated in Debeir et al., 2008, Exp Cell Res 314:2985-2998 and Mathieu et al., 2009, J Cell Mol Med, Feb. 20, 2009.
(§6) Illustrative pictures (time=0 h and 72 h) of glioblastoma and normal fibroblast cell line left untreated or treated with poly-vanillic compounds according to the invention (50 μM) are provided in FIG. 1 (U373 glioblastoma) and FIG. 2 (normal fibroblasts). The GGR parameter analyses confirmed the marked impairment of cell growth in both cancer cell lines of the poly-vanillic compounds according to the invention (Table 5).

[2] = system: Eleven human cancer cell lines; assay: MTT colorimetric assay, across the eleven human cancer cell lines; assay type: cell-based; conditions: mean ± SEM over the 11 human cancer cell lines, MTT, 72 hours; read-out: In Vitro IC50 Growth Inhibitory Values, m ± SEM
From the text: as §1

[3] = system: A549 non-small-cell-lung cancer cell line; assay: Cellular imaging (quantitative videomicroscopy), global growth ratio, A549; assay type: cell-based; conditions: Homo sapiens, 72 h, read-out: Global Grow Ratio Treated/Ct (GGR T/Ct) determined by Video Quantitative microscopy, A549
From the text: as §2, §3, §4, §5, §6

Hs683 glioma cells = assay: MTT colorimetric assay, overall cell growth, Hs683; assay type: cell-based, human; conditions: read-out: In Vitro IC50 Growth Inhibitory Values, Hs683
From the text: as §1

[4] = system: B16F10 melanoma cell-line; assay: MTT colorimetric assay, overall cell growth, B16F10; assay type: cell-based, mouse; conditions: read-out: In Vitro IC50 Growth Inhibitory Values, B16F10
From the text: as §1

T98G glioma cells = assay: MTT colorimetric assay, overall cell growth, T98G; assay type: cell-based, human; conditions: 72 hours of incubation, read-out: In Vitro IC50 Growth Inhibitory Values, T98G
From the text: as §1

[5] = system: OE21 oesophageal cancer cells; assay: MTT colorimetric assay, overall cell growth, OE21; assay type: cell-based, human; conditions: read-out: In Vitro IC50 Growth Inhibitory Values, OE21
From the text: as §1

U373 glioblastoma cells = assay: MTT colorimetric assay, overall cell growth, U373; assay type: cell-based, human; conditions: 72 hours of incubation, read-out: In Vitro IC50 Growth Inhibitory Values, U373
From the text: as §1

LoVo colon cancer cells = assay: MTT colorimetric assay, overall cell growth, LoVo; assay type: cell-based, human; conditions: 72 hours of incubation, read-out: In Vitro IC50 Growth Inhibitory Values, LoVo
From the text: as §1

[6] = system: MCF-7 breast cancer cells; assay: MTT colorimetric assay, overall cell growth, MCF-7; assay type: cell-based, human; conditions: read-out: In Vitro IC50 Growth Inhibitory Values, MCF-7
From the text: as §1

[7] = system: A549 non-small-cell-lung cancer cells; assay: MTT colorimetric assay, overall cell growth, A549; assay type: cell-based, human; conditions: read-out: In Vitro IC50 Growth Inhibitory Values, A549
From the text: as §1

[8] = system: OE33 oesophageal cancer cells; assay: MTT colorimetric assay, overall cell growth, OE33; assay type: cell-based, human; conditions: read-out: In Vitro IC50 Growth Inhibitory Values, OE33
From the text: as §1

[9] = Homo sapiens, Hs 683, 72 hours of incubation
[10] = Mus musculus, B16-F10, 72 hours of incubation
[11] = Homo sapiens, OE21, 72 hours of incubation
[12] = Homo sapiens, MCF7, 72 hours of incubation
[13] = Homo sapiens, A549, 72 hours of incubation
[14] = Homo sapiens, OE33, 72 hours of incubation

IC50 (VM48 melanoma cells; Homo sapiens) [µM] | IC50 ([1]; Homo sapiens) [µM] | IC50 (VM21 melanoma cells; Homo sapiens) [µM] | IC50 [2] [µM] | Structure (SMILES) | activity at 50 µM (U373-MG glioma cell line) [%] | activity at 50 µM [3] [%] | IC50 (Hs683 glioma cells; 72 hours of incubation) [µM] | IC50 (VM48 melanoma cells) [µM] | IC50 [1] [µM] | IC50 ([4]; 72 hours of incubation) [µM] | IC50 (VM21 melanoma cells) [µM] | IC50 (T98G glioma cells) [µM] | IC50 ([5]; 72 hours of incubation) [µM] | IC50 (U373 glioblastoma cells) [µM] | IC50 (LoVo colon cancer cells) [µM] | IC50 ([6]; 72 hours of incubation) [µM] | IC50 ([7]; 72 hours of incubation) [µM] | IC50 ([8]; 72 hours of incubation) [µM] | further results
> 100 | > 100 | > 100 | > 100 | COc1cc(C(=O)OCCCCCOC(=O)c2ccc(O)c(OC)c2)ccc1O [DLT3, Pentane-1,5-diyl bis-(4-hydroxy-3-methoxybenzoate)] | 70 | 90 |  |  |  |  |  |  |  |  |  |  |  |  | 
22 | 36 | 33 | 29 | COc1cc(C(=O)O[C@H]2CCC[C@H]2OC(=O)c2ccc(O)c(OC)c2)ccc1O [DLT14, cis-cyclopentane-1,2-diyl bis-(4-hydroxy-3-methoxybenzoate)] |  |  |  |  |  |  |  |  |  |  |  |  |  |  | IC50 (Hs683 glioma cells; [9]): 27 µM; IC50 [4, 10]: 9 µM; IC50 (T98G glioma cells; Homo sapiens, T98G): 32 µM; IC50 [5, 11]: 28 µM; IC50 (U373 glioblastoma cells; Homo sapiens, U373 MG): 36 µM; IC50 (LoVo colon cancer cells; Homo sapiens, LoVo): 24 µM; IC50 [6, 12]: 27 µM; IC50 [7, 13]: 24 µM; IC50 [8, 14]: 28 µM
26 |  | 28 | 42 | COc1cc(C(=O)OCCCCCCCCOC(=O)c2ccc(O)c(OC)c2)ccc1O [DLT13, Octane-1,8-diyl bis-(4-hydroxy-3-methoxybenzoate)] | 20 | 20 |  |  |  |  |  |  |  |  |  |  |  |  | 
84 | 81 | 34 | 57 | O=C(OCCOC(=O)c1ccc(O)c(Cl)c1)c1ccc(O)c(Cl)c1 [DLT23, Ethane-1,2-diyl bis-(4-hydroxy-3-chlorobenzoate)] |  |  |  |  |  |  |  |  |  |  |  |  |  |  | IC50 (Hs683 glioma cells; [9]): 53 µM; IC50 [4, 10]: 27 µM; IC50 (T98G glioma cells; Homo sapiens, T98G): 45 µM; IC50 [5, 11]: 31 µM; IC50 (U373 glioblastoma cells; Homo sapiens, U373 MG): 52 µM; IC50 (LoVo colon cancer cells; Homo sapiens, LoVo): 48 µM; IC50 [6, 12]: 53 µM; IC50 [7, 13]: 72 µM; IC50 [8, 14]: 73 µM
52 |  | 60 | > 100 | COc1cc(C(=O)OCCCCOC(=O)c2ccc(O)c(OC)c2)ccc1O [DLT10, Butane-1,4-diyl bis-(4-hydroxy-3-methoxybenzoate)] | 50 | 20 |  |  |  |  |  |  |  |  |  |  |  |  | 
68 |  | 72 | > 100 | COc1cc(C(=O)OCCCOC(=O)c2ccc(O)c(OC)c2)ccc1O [DLT2, Propane-1,3-diyl bis-(4-hydroxy-3-methoxybenzoate)] | 40 | 110 |  |  |  |  |  |  |  |  |  |  |  |  | 

Structure (SMILES) | IC50 (VM48 melanoma cells; Homo sapiens) [µM] | IC50 ([1]; Homo sapiens) [µM] | IC50 (VM21 melanoma cells; Homo sapiens) [µM] | IC50 [2] [µM] | activity at 50 µM (U373-MG glioma cell line) [%] | activity at 50 µM [3] [%] | IC50 (Hs683 glioma cells; 72 hours of incubation) [µM] | IC50 (VM48 melanoma cells) [µM] | IC50 [1] [µM] | IC50 ([4]; 72 hours of incubation) [µM] | IC50 (VM21 melanoma cells) [µM] | IC50 (T98G glioma cells) [µM] | IC50 ([5]; 72 hours of incubation) [µM] | IC50 (U373 glioblastoma cells) [µM] | IC50 (LoVo colon cancer cells) [µM] | IC50 ([6]; 72 hours of incubation) [µM] | IC50 ([7]; 72 hours of incubation) [µM] | IC50 ([8]; 72 hours of incubation) [µM] | further results
COc1cc(C(=O)O[C@@H]2CC[C@@H](OC(=O)c3ccc(O)c(OC)c3)C2)ccc1O (stereo in doubt) [DLT19, R,R-trans-cyclopentane-1,3-diyl bis-(4-hydroxy-3-methoxybenzoate)] |  |  |  | 34 |  |  | 30 | 53 | 42 | 26 | 37 | 31 | 34 | 35 | 18 | 25 | 32 | 36 | 
O=C(O[C@@H]1CCCC[C@H]1OC(=O)c1ccc(O)c(Cl)c1)c1ccc(O)c(Cl)c1 (relative stereo) [DLT30, R,R-trans-cyclohexane-1,2-diyl bis-(4-hydroxy-3-chlorobenzoate)] |  |  |  | 32 |  |  | 10 | 58 | 44 | 1 | 53 | 11 | 41 | 31 | 26 | 21 | 18 | 34 | 
COc1cc(C(=O)O[C@H]2CCC[C@@H]2OC(=O)c2ccc(O)c(OC)c2)ccc1O (stereo in doubt) [DLT15, S,S-trans-cyclopentane-1,2-diyl bis-(4-hydroxy-3-methoxybenzoate)] |  |  |  | 28 |  |  | 25 | 26 | 26 | 6 | 35 | 30 | 28 | 30 | 28 | 23 | 30 | 28 | 
COc1cc(C(=O)O[C@H]2CCCCC[C@@H]2OC(=O)c2ccc(O)c(OC)c2)ccc1O (relative stereo) [DLT22, S,S-trans-cycloheptane-1,2-diyl bis-(4-hydroxy-3-methoxybenzoate)] |  |  |  | 52 |  |  | 44 | 50 | 88 | 10 | 51 | 24 | 49 | 54 | 44 | 69 | 46 | 55 | 
